From US4231925A, “Pentapeptides with analgesic activity on peripheral administration” (American Home Products Corporation, priority 1979, dated 1980)
Values joined by “and” are separate entries in the source; they are usually repeats but may differ in a detail not shown here. Equal entries are not always repeated. Where two headings read alike, the source gives them in different places.

Key:
[1] = system: rat brain opiate receptors; experiment: in vitro opiate receptor assay, 3H-naloxone displacement in rat brain homogenate; type: binding; conditions: relative to morphine = 1.0
Description: In this procedure, a fasted male Charles River CD rat, 190-290 g., is killed with a guillotine after carbon-dioxideanesthesia, and the brain is rapidly removed. After the cerebellum is excised, the brain is homogenized in 100 vol. (usually 150 ml.) iced 0.05 M Trizma buffer (pH 7.4 at 25°) 0.1 M in sodium chloride in a Brinkman Polytron for 1 min. at setting 3. The homogenate is centrifuged at 49,500 g for 15 min. (Sorvall SS-34 rotor at 19,500 rpm) in 50 ml. propylene tubes. The supernatant is decanted, and the pellets are resuspended in iced buffer to the original volume by use of a motor driven pestle tissue grinder. The homogenate is centrifuged again and resuspended in 10 ml. iced buffer.
Homogenates and samples ae equilibrated at room temperature for 5 minutes before adding 0.05 ml. 3 H-naloxone solution to give a total volume of 0.50 ml. for all tubes.
The assay tubes are hand-shaken every 15 min. for an incubation time of 60 min. at 0° C. The contents are filtered under reduced pressure through Whatman glass-fiber circles (GF/B, 2.4 cm. dia.). […] The vials are hand-shaken immediately, after 30 min., at the end of the day, stored overnight, hand-shaken, and radioactivity is determined by liquid-sintillation spectrometry.
The assay is calculated as follows: […]

[2] = system: phenylbenzoquinone (PBQ)-induced writhing; experiment: phenylbenzoquinone-induced writhing test, subcutaneous administration; type: in vivo, mice
Description: The procedure is a modification of the method described by Siegmund and Cadmus, Proc. Soc. Exp. Biol. Med., 95, 729-731 (1957), which is used to evaluate both narcotic and non-narcotic analgesics. […] Laboratory mice of either sex, weighing 18-27 g. are used in groups of ten as test subjects. The test compound is administered first in an initial dose determined by the potency of the class of compounds and the route of administration. The test is run first in one group of mice at a relatively high dose to establish significant analgesic activity [see (1) in Table I]. When analgesic activity is observed in four or more of this group, a second test is run on at least three groups of mice to determine the most appropriate dose/time response to use in the subsequent dose response test [see (2) in Table I]. Finally, the ED50 dose is determined by administering different doses to several groups of mice and observing their reaction during the time interval established by the dose/time test [see (3)-(9) in Table I]. Note that the time interval is designated by the median time of the chosen response observation period (e.g. 15, 30, or 45 minutes). In testing each group of mice according to the above protocol, all mice in the group first are administered the selected dose of the test compound solution. Five minutes prior to the observation period (viz. at 5, 20, or 35 minutes after subcutaneous administration of the test compound of at 20, 50, or 80 minutes after oral administration of the test compound) all mice in the group receive 0.25 ml., intraperitoneally, of the writhing agonist (i.e. 0.02% solution of PBQ). At the chosen time interval, the group of mice is observed for a period of ten minutes for writhing.

tail-flick = conditions: rat, cited from earlier work
[3] = oral administration; cited from earlier work
opiate receptor = conditions: electrically stimulated guinea pig ileum; cited from earlier work
[4] = intracerebroventricularly, intravenously, or subcutaneously; cited from earlier work
[5] = rat lateral brain ventricle; cited from earlier work
[6] = e.g. subcutaneously or intravenously; cited from earlier work
[7] = human blood plasma; cited from earlier work
[8] = rat blood plasma; cited from earlier work

CN[C@@H](Cc1ccc(O)cc1)C(=O)N[C@H](CCSC)C(=O)NCC(=O)N(C)[C@@H](Cc1ccccc1)C(=O)N[C@H](CO)C(N)=O [Example 1, N-Methyl-Tyrosyl-D-Methionyl-Glycyl-N-Methyl-Phenylalanyl-D-Serinamide . Acetate]
Relative Displacement Potency [1]: 14 | Relative Displacement Potency ([1]; listed as Example I): in excess of ten times | No. Analgesic / Total No. Tested ([2]; (1) 10.0 mg/kg subcutaneous, 15 minutes, 10 mg/kg): 10/10 and 10 of 10 | No. Analgesic / Total No. Tested ([2]; (2) dose/time test, 0.1 mg/kg subcutaneous, 15 minutes): 4/10 | No. Analgesic / Total No. Tested ([2]; (2) dose/time test, 0.1 mg/kg subcutaneous, 30 minutes): 3/10 | No. Analgesic / Total No. Tested ([2]; (2) dose/time test, 0.1 mg/kg subcutaneous, 45 minutes): 1/10 | No. Analgesic / Total No. Tested ([2]; (3) 0.032 mg/kg subcutaneous, 15 minutes): 0/10 | No. Analgesic / Total No. Tested ([2]; (4) 0.056 mg/kg subcutaneous, 15 minutes): 3/10 | No. Analgesic / Total No. Tested ([2]; (5) dose response test, 0.1 mg/kg subcutaneous, 15 minutes): 2/10 | No. Analgesic / Total No. Tested ([2]; (6) 0.178 mg/kg subcutaneous, 15 minutes): 6/10 | No. Analgesic / Total No. Tested ([2]; (7) 0.316 mg/kg subcutaneous, 15 minutes): 5/10 | No. Analgesic / Total No. Tested ([2]; (8) 0.56 mg/kg subcutaneous, 15 minutes): 4/10 | No. Analgesic / Total No. Tested ([2]; (9) 1.00 mg/kg subcutaneous, 15 minutes, 1 mg/kg): 8/10 and 8 of 10 | ED50 ([2]; subcutaneous, mice, complete inhibition of PBQ-induced writhing, 15 minutes): 0.33 mg/kg

CN1CC[C@]23c4c5ccc(O)c4O[C@H]2[C@@H](O)C=C[C@H]3[C@H]1C5 [Morphine]
duration of analgesia (tail-flick; morphine comparison): an hour or more

(D-Ala^2, Me-Phe^4, Met(0)^5)-enkephalin
analgesic activity [3]: elicited analgesic activity

(D-Ala^2, Met(O)^5)-enkephalin
analgesic activity [3]: elicited analgesic activity

(D-Met^2, Leu^5) enkephalin, methyl ester
opiate receptor agonist activity (opiate receptor): strong opiate receptor agonist activity

(D-Met^2, Pro^5)-enkephalin amide
analgesic activity [4]: elicits analgesic activity

(Ser^5)-enkephalin
analgesic activity [5]: eliciting analgesic activity

H--Tyr--Gly--Gly--Phe--Leu--OH [Leu-enkephalin]
activity when administered systemically [6]: virtually inactive | dose producing analgesia equivalent to morphine (tail-flick; intraventricular): 10-20 times that of morphine | duration of analgesia (tail-flick; intraventricular): 10 to 12 min

H--Tyr--Gly--Gly--Phe--Met--OH [Met-enkephalin]
activity when administered systemically [6]: virtually inactive | dose producing analgesia equivalent to morphine (tail-flick; intraventricular): 10-20 times that of morphine | duration of analgesia (tail-flick; intraventricular): 10 to 12 min | breakdown in blood plasma [7]: broken down | breakdown in blood plasma [8]: broken down
